PMC9909315, “SY-707, an ALK/FAK/IGF1R inhibitor, suppresses growth and metastasis of breast cancer cells” (Acta Biochimica et Biophysica Sinica, 2022)
Where two headings read alike, the source gives them in different places.

Tests used:
[1] = tested on: 4T1 breast cancer metastasis to the lung; experiment: Metastasis analysis in vivo (lung nodules, 4T1 model); parameters: species or system nude mice; details: 4T1, treatment alone: SY-707 100 mg/kg/day PO; paclitaxel 10 or 20 mg/kg/week IV; 20 days; not statistically different
Method: Metastasis was detected in mouse lungs after the mice were sacrificed at the last dosing day. The lungs of each mouse were excised immediately and fixed with 4% paraformaldehyde for 24 h, then the lungs were photographed (three photographs per section per mouse) and the metastatic nodules in the lungs were manually counted and the data was analyzed for compound evaluation.
Mice were inoculated with 4T1 cells in PBS at right and left flanks expect the normal control group ( Figure 6A), SY-707 with or without paclitaxel was administered for 20 days when tumor volumes reached 150–300 mm ^3. The mice were sacrificed on the last day of drug administration, then the lungs were collected and metastatic nodules were counted manually for the evaluation of metastasis of 4T1 breast cancer.
The normal group (A) and the vehicle group which treatment with 20% SBE (B) were control. Mouse lungs were taken at the last day of treatment and fixed with 4% paraformaldehyde for 24 h, then the lungs were photographed and the metastatic nodules were counted manually for further analysis. *P<0.05, **P<0.01.

[2] = tested on: phosphorylation of Pyk2 at Tyr402; experiment: Western blot of Pyk2 phosphorylation in MCF-7 cells; assay type: cell-based; details: MCF-7, 1 h treatment
Method: Equal amounts of cell lysates were loaded onto 10% SDS-PAGE gel and separated by electrophoresis. Separated proteins were then electro-transferred onto polyvinylidene fluoride (PVDF) membranes (Millipore, Bedford, USA). After being blocked with Tris-buffered saline containing 0.1% Tween-20 (TBST) and 5% bovine serum albumin (BSA), the membranes were incubated with primary antibodies at room temperature for 2 hours or at 4°C, then washed with TBST, followed by treatment with horseradish peroxidase (HRP)-conjugated goat anti-rabbit IgG secondary antibody at room temperature for another 1 h. The targeted protein bands were visualized using an enhanced chemiluminescence (ECL) plus system (Thermo Fisher Scientific). […]
Figure4 Inhibitory effects of SY-707 on the phosphorylation of FAK(A,B) Concentration-dependent inhibition of SY-707 on phosphorylation of FAK in T47D (A) and MCF-7 (B) cells. […] Cell lysates were analyzed by western blot analysis using specific antibodies against p-FAK, p-Pyk2, p-AKT and p-ERK respectively. […] Cell lysates were analyzed by western blot analysis using specific antibodies against p-IGF1R, p-STAT3, p-AKT and p-ERK respectively.

Tissue distribution = assay type: in vivo; details: SD rats, oral 15 mg/kg; except the uterus and spleen
Method: In addition, SY-707 also had good clearance parameters and oral bioavailability in these two species.
Supplementary Figure S1. The tissue distribution profile of SY-707 Tissue distribution of SY-707 in SD rats was measured after oral administration of SY-707 (15 mg/kg).

Pharmacokinetic study = assay type: in vivo, beagle dogs; details: serum, Beagle dog, 5 mg/kg PO; for CL/F: read-out: Cl_F_obs (converted); for MRT inf: read-out: MRT INF_obs
Method: Female SD rats (5-6 weeks old) or beagle dogs were administrated with SY-707 at a single dose of 5 mg/kg, and blood samples were taken sequentially from 2 min to 24 h after compound administration. […] The serum samples were collected by centrifugation and stored at –80 °C. Compound concentrations in the sample serums were further analyzed with an API-4000 LC-MS/MS system (Applied Biosystem, Foster City, USA), and pharmacokinetic parameters ( T 1/2, T max, C max, AUC 0-INF, Cl_F_obs, MRT INF_obs, and F(%)) were calcuated using the WinNonlin software (version 6.2; WinNonlin Professional, Pharsight, USA).

ALK = ALK (Homo sapiens, UniProt Q9UM73); experiment: Enzymatic kinetic analysis at various ATP concentrations; assay type: biochemical
Chain of ALK (Q9UM73 19-1620): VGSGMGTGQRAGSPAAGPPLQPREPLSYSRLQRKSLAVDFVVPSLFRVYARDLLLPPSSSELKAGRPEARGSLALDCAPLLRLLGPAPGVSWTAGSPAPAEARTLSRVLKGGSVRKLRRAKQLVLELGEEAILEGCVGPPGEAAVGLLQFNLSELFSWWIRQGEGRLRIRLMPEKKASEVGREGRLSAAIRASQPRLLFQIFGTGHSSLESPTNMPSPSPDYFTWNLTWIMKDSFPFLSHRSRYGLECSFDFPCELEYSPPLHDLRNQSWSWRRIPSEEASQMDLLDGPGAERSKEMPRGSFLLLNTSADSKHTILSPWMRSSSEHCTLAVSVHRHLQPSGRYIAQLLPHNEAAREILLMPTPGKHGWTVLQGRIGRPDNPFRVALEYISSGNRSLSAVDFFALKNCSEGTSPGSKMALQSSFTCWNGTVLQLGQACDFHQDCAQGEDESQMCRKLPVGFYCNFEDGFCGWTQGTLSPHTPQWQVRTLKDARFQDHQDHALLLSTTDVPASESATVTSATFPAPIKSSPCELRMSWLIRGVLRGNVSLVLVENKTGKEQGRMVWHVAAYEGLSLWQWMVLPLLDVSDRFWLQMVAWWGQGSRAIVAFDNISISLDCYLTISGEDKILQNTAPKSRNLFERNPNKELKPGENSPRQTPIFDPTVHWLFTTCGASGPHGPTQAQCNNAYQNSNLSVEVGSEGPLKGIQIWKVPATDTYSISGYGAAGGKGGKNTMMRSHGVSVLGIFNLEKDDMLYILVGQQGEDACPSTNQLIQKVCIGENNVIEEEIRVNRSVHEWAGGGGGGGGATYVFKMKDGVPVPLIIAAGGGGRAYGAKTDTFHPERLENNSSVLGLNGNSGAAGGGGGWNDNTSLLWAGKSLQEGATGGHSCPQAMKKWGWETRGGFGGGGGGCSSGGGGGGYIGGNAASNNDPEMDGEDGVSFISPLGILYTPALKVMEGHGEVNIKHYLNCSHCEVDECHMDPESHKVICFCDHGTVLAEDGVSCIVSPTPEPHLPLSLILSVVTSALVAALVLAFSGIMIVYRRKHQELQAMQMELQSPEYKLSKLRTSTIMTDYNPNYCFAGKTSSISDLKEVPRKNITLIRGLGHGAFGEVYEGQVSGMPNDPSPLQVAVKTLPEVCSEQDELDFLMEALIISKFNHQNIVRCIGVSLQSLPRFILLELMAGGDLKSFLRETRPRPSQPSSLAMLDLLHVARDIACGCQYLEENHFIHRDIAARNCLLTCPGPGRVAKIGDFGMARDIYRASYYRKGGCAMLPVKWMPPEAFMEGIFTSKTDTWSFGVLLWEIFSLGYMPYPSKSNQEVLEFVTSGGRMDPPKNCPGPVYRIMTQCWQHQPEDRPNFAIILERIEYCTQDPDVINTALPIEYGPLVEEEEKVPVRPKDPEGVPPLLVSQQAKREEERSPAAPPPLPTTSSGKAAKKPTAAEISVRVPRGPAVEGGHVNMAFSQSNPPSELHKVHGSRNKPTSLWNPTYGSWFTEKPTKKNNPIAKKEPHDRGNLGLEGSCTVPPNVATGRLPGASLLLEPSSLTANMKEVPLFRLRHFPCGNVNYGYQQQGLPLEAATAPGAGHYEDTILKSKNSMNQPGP
Method: (§1) SY-707 ( Figure 1A) was originally developed as an ALK inhibitor. […] To evaluate the in vitro enzymatic potency and selectivity of SY-707, a kinase panel screening on 96 kinases was performed to determine the inhibitory activities of SY-707 at a concentration of 1 mM. […] Then, enzymatic kinetic analysis of ALK and FAK was performed to explore the mechanisms of inhibition effect of SY-707. Activities of ALK or FAK were estimated at various concentrations of ATP in the presence or absence of SY-707.
(§2) (C) ALK enzyme activities were evaluated at various concentrations of ATP (0–50 μM) in the presence of different concentrations of SY-707. (D) FAK enzyme activities were evaluated at various concentrations of ATP (0–333 μM) in the presence of different concentrations of SY-707.

FAK = FAK (Homo sapiens, UniProt Q05397); experiment: as above; assay type: biochemical
Chain of FAK (Q05397 whole entry): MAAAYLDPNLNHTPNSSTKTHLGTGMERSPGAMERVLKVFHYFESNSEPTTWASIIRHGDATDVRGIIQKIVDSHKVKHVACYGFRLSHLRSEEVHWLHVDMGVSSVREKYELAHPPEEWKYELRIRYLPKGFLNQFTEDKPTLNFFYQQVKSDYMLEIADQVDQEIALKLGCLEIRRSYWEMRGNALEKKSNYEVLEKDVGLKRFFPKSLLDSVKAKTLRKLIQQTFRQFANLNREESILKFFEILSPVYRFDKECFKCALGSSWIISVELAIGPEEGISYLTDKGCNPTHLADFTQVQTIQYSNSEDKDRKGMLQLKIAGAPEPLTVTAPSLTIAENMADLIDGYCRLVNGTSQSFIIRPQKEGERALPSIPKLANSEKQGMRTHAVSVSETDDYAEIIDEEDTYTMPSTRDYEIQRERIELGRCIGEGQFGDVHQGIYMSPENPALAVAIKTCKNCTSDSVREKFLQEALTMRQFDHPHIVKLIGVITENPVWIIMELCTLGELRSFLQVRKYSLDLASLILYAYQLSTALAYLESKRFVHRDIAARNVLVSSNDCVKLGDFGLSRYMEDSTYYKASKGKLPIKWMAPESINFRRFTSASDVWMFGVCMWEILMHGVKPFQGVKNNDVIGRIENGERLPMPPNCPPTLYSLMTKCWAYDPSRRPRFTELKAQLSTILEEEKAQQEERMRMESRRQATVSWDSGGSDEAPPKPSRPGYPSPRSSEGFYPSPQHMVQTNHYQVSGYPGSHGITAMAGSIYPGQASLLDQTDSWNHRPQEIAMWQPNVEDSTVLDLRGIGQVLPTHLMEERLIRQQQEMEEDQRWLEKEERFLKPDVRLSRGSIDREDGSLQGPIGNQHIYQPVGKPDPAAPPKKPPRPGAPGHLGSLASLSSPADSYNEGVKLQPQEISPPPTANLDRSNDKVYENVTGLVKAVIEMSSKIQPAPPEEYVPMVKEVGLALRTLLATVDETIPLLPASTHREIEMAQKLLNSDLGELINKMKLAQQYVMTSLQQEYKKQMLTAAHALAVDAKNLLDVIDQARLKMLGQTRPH
Method: as §1, §2

T47D cells [3] = experiment: Western blot for cleaved PARP; assay type: cell-based; details: various concentrations, 24 h
Method: (§3) Equal amounts of cell lysates were loaded onto 10% SDS-PAGE gel and separated by electrophoresis. Separated proteins were then electro-transferred onto polyvinylidene fluoride (PVDF) membranes (Millipore, Bedford, USA). After being blocked with Tris-buffered saline containing 0.1% Tween-20 (TBST) and 5% bovine serum albumin (BSA), the membranes were incubated with primary antibodies at room temperature for 2 hours or at 4°C, then washed with TBST, followed by treatment with horseradish peroxidase (HRP)-conjugated goat anti-rabbit IgG secondary antibody at room temperature for another 1 h. The targeted protein bands were visualized using an enhanced chemiluminescence (ECL) plus system (Thermo Fisher Scientific). Primary antibodies against phospho-FAK (3283, 1:1000 dilution), phospho-ERK (4377, 1:2000 dilution), phospho-AKT (4060, 1:2000 dilution), FAK (3285, 1:1000 dilution), AKT (6703, 1:1000 dilution) and β-Actin (5125, 1:10,0000 dilution) were purchased from Cell Signaling Technology (Beverly, USA) and the HRP-conjugated goat anti-rabbit IgG (ZDR-5306, 1:10,000 dilution) was purchased from Jackson (West Grove, USA ).
(§4) Cells were cultured and treated with SY-707 under the indicated concentrations (0.01, 0.1 and 1 μM respectively) for 24 h, then stained with Annexin-V and 7-AAD for cell apoptosis analysis by Guava flow cytometry.

MCF-7 cells [4] = experiment: Western blot for cleaved PARP; assay type: cell-based; details: MCF-7, various concentrations, 24 h
Method: as §3, §4

T47D cells [5] = experiment: Cell adhesion assay; assay type: cell-based; details: 24 h pretreatment, dose-dependent
Method: (§5) MCF-7 and T47D cells were plated in 6-well plates and pretreated with different concentrations of PF-562271 or SY-707 for 24 h, and then trypsinized, washed and resuspended in culture medium. Cells were added into each well and incubated for 6 h. Non-adherent cells were collected by washing with PBS and counted.

MCF-7 cells [6] = experiment: Cell adhesion assay; assay type: cell-based; details: MCF-7, 24 h pretreatment, dose-dependent
Method: as §5

COc1cc(N2CCC(N3CCN(C)CC3)CC2)ccc1Nc1nc2c(c(Nc3ccccc3S(=O)(=O)NC(C)C)n1)CCN2 [SY-707, N-isopropyl-2-((2-((2-methoxy-4-(4-(4-methylpiperazin-1-yl)piperidin-1-yl)phenyl)amino)-6,7-dihydro-5H-pyrrolo[2,3-d]pyrimidin-4-yl)amino)benzenesulfonamide]
number of metastatic nodules in the lungs vs vehicle group [1]: reduced the number of metastatic nodules
phosphorylation of Pyk2 at Tyr402 [2]: dose-dependently suppressed
distribution in rat tissues (AUC 0–24 h) relative to plasma (Tissue distribution): other organs had lower level of SY-707 than the plasma
AUC(0-inf) (Pharmacokinetic study; both sexes, All): 0.459 µg·h/mL
Cmax (Pharmacokinetic study; both sexes, All): 0.036 µg/mL
Tmax (Pharmacokinetic study; both sexes, All): 2.83 h
bioavailability (Pharmacokinetic study; both sexes, All): 21.1%
half-life (Pharmacokinetic study; both sexes, All): 9.72 h
CL/F (Pharmacokinetic study; both sexes, All): 11.7 L/h/kg
MRT inf (Pharmacokinetic study; both sexes, All): 13.6 h
AUC(0-inf) (Pharmacokinetic study; Female): 0.438 µg·h/mL
Cmax (Pharmacokinetic study; Female): 0.0342 µg/mL
Tmax (Pharmacokinetic study; Female): 2.67 h
bioavailability (Pharmacokinetic study; Female): 18.8%
half-life (Pharmacokinetic study; Female): 10.1 h
CL/F (Pharmacokinetic study; Female): 12.1 L/h/kg
MRT inf (Pharmacokinetic study; Female): 13.7 h
AUC(0-inf) (Pharmacokinetic study; Male): 0.479 µg·h/mL
Cmax (Pharmacokinetic study; Male): 0.0378 µg/mL
Tmax (Pharmacokinetic study; Male): 3 h
bioavailability (Pharmacokinetic study; Male): 23.8%
half-life (Pharmacokinetic study; Male): 9.33 h
CL/F (Pharmacokinetic study; Male): 11.3 L/h/kg
MRT inf (Pharmacokinetic study; Male): 13.6 h
mode of inhibition of ALK kinase (ALK; Lineweaver-Burk plots): ATP-competitive inhibitor
Ki', ALK enzyme-ATP complex (ALK; enzyme-ATP complex): 19.2 nM
Ki (ALK; free enzyme, read-out: dissociation constant (Ki), free ALK enzyme): 0.9 nM
mode of inhibition of FAK kinase (FAK; double-reciprocal plots): ATP-competitive inhibitory behavior
Ki', FAK enzyme-ATP complex (FAK; enzyme-ATP complex): 16.1 nM
Ki (FAK; free enzyme, read-out: dissociation constant (Ki), free FAK enzyme): 0.56 nM
cleaved PARP (T47D cells [3]): markedly detected
cleaved PARP (MCF-7 cells [4]): markedly detected
cell adhesion (T47D cells [5]): characteristically repressed
cell adhesion (MCF-7 cells [6]): characteristically repressed
